# Results: patent US20260070885A1, “TRKA (G667C) AND FLT3 TARGET INHIBITOR AND COMBINATION OF SAME WITH CHIDAMIDE” (SHENZHEN CHIPSCREEN BIOSCIENCES CO., LTD., priority 2022, published 2026)
# How the values were obtained:
# SHP77 cells = test: Viability of SHP77 cells (MTS assay); type: cell-based; settings: 72 h
# Protocol: The SHP77 cell line was purchased from the American Type Culture Collection (ATCC) and cultured in an RPMI-1640 culture medium (Hyclone) containing 1% dual antibiotics (penicillin-streptomycin, Hyclone) and 10% fetal bovine serum (Gibco).
# Compound A (N-[4-(6-Fluoro-1H-2-benzimidazolyl)benzyl]-(E)-3-(pyridin-3-yl)acrylamide) and chidamide were both from Shenzhen Chipscreen Biosciences Co., Ltd. The compound and chidamide were dissolved in dimethyl sulfoxide (DMSO, Shanghai Sangon, DN3039A) to prepare 20 mM working mother liquors, and the mother liquors were stored in a freezer at −20° C. before use. When in use, the mother liquors were diluted to prepare working solutions with corresponding final concentrations according to the needs of each experiment.
# MTS solution: 42 mg of MTS Reagent Powder was placed in a light shielding container, and 21 mL of PBS was added. The mixture was gently stirred on a magnetic stirrer for 15 min until MTS was completely dissolved. The pH of the solution was measured. If the pH was higher than 6.5, the pH of the solution was adjusted to 6.5 with 1 M HCl. The solution was sterilized by filtration through a 0.2 μm filter and stored at −20° C. in a dark place.
# PMS solution: […] of PMS was added to 21.7 mL of PBS to prepare a 150 μM stock solution, and the stock solution was sterilized by filtration, aliquoted, and stored at −20° C. in a dark place.
# 2.2. […]
# 2.4. […] After the plate was incubated for about 1 h, the absorbance at 490 nm in each well was measured using a microplate reader.
# The reading of the BLANK well was OD490-BLANK (background value). The background value was subtracted from the readings of the wells to obtain the absorbance values of the administration wells, OD490-T, and the absorbance values of the control wells in which the drug concentration was 0, OD490-T0. With the cell viability of the control wells defined as 100%, the relative cell survival rate in each administration well was calculated using the formula: relative cell survival rate (%)=(OD490-T/OD490-T0)×100%.
# FLT3 = FLT3 (Homo sapiens (Human), UniProt P36888); test: HTRF kinase inhibition assay, FLT3; type: biochemical; settings: ATP 2 μM
# Protocol: (§1) The inhibition of the kinases TRKA (G667C), FLT3, and FLT3 (D835Y) by the compound N-[4-(6-fluoro-1H-2-benzimidazolyl)benzyl]-(E)-3-(pyridin-3-yl)acrylamide of the present disclosure (hereinafter referred to as compound A) was assessed using a homogeneous time-resolved fluorescence (HTRF) method based on biochemical levels.
# (§2) HTRF is a technology used for detecting a test substance in a pure liquid phase system. Based on two major technologies: fluorescence resonance energy transfer (FRET) and time-resolved fluorescence (TRF), the generated fluorescence intensity was measured using a microplate reader, and the ratio 665 nm/620 nm reflected the extent to which compound A inhibited the activity of the kinases TRKA (G667C), FLT3, and FLT3 (D835Y).
# (§3) a) Preparation of compound A or chidamide: The starting stock solution concentration of compound A or chidamide was 20 mM. The stock solution was serially diluted with the solvent 100% DMSO to 0.2 mM, which was 200 times the assay starting concentration.
# (§4) b) A kinase reaction buffer Assay Buffer was prepared using the following formula: […]
# (§5) 4) After the 384-well plate was centrifuged at 1000 rpm for 30 s and shaken for thorough mixing, the fluorescence intensities at 665 nm and 620 nm were measured using EnVision, and the TR-FRET ratio (665 nm/620 nm) was calculated. […]
# FLT3 (D835Y) = FLT3 (D835Y) (Homo sapiens (Human), UniProt P36888, D835Y); test: HTRF kinase inhibition assay, FLT3 (D835Y); type: biochemical; settings: ATP 0.5 μM
# Protocol: as §1, §2, §3, §4, §5
# TRKA (G667C) = TRKA (G667C) (Homo sapiens (Human), UniProt P04629, G667C); test: HTRF kinase inhibition assay, TRKA (G667C); type: biochemical; settings: ATP 0.5 μM
# Protocol: as §1, §2, §3, §4, §5
# Sequence of TRKA (G667C) (P04629 33-796 G667C): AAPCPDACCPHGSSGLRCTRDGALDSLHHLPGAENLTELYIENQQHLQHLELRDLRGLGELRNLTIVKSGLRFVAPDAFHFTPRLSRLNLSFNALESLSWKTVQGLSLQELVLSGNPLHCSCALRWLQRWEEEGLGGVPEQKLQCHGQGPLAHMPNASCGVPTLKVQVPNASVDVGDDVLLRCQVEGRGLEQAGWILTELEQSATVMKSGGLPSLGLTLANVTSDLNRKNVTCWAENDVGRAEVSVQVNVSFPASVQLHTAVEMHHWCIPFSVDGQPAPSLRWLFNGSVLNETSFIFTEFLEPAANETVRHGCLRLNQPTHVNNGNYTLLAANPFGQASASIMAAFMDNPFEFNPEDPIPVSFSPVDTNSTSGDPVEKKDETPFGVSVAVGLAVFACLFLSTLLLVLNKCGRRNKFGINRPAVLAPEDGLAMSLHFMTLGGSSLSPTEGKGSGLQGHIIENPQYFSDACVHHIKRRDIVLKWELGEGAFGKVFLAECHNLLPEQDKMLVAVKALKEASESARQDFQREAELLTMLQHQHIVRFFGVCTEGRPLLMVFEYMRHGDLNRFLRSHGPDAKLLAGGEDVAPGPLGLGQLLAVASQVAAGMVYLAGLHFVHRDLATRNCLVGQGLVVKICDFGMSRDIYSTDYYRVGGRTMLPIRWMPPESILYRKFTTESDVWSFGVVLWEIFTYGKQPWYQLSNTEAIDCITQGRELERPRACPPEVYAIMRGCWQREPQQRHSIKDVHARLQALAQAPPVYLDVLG
SMILES,relative cell survival rate (SHP77 cells; chidamide alone 0.5 μM) [%],IC50 (FLT3) [µM],IC50 (FLT3 (D835Y)) [µM],IC50 (TRKA (G667C)) [µM],relative cell survival rate (SHP77 cells; compound A alone 0.625 μM) [%],relative cell survival rate (SHP77 cells; compound A alone 1.25 μM) [%]
"Nc1cc(F)ccc1NC(=O)c1ccc(CNC(=O)/C=C/c2cccnc2)cc1 [Chidamide, N-(2-amino-4-fluorophenyl)-4-[N-[(E)-3-(pyridin-3-yl)acryloyl]aminomethyl]benzamide]",95.45±0.81,> 1,> 1,> 1,–,–
"O=C(/C=C/c1cccnc1)NCc1ccc(-c2nc3ccc(F)cc3[nH]2)cc1 [Compound A, N-[4-(6-fluoro-1H-2-benzimidazolyl)benzyl]-(E)-3-(pyridin-3-yl)acrylamide]",–,0.143,0.104,0.0407,77.43±1.18,44.09±6.59
